Measured values: ChEMBL document CHEMBL3885881, “DrugMatrix”

Species: Rattus norvegicus
Experiment: DrugMatrix - Regimen: Daily Repeat
Assay type: toxicity, organism-based, Sprague-Dawley
Design: regimen Daily Repeat, gender Male, age 6-8 weeks
Settings: in vivo, sc, route subcutaneous, […]; for ABSOLUTE BASOPHIL / ABSOLUTE EOSINOPHIL / ABSOLUTE LYMPHOCYTE / ABSOLUTE MONOCYTE / BASOPHIL / EOSINOPHIL / ERYTHROCYTE COUNT / HEMATOCRIT / HEMOGLOBIN / LEUKOCYTE COUNT / LYMPHOCYTE / MEAN CORPUSCULAR HEMOGLOBIN / MEAN CORPUSCULAR HEMOGLOBIN CONCENTRATION / MEAN CORPUSCULAR VOLUME / MONOCYTE / NEUTROPHIL / NUCLEATED RED BLOOD CELLS / PLATELET COUNT: tissue Blood; for ALANINE AMINOTRANSFERASE / ALBUMIN / ASPARTATE AMINOTRANSFERASE / BLOOD UREA NITROGEN / CARBON DIOXIDE / CHLORIDE / CHOLESTEROL / CREATINE PHOSPHOKINASE / CREATININE / GLUCOSE / LACTATE DEHYDROGENASE / LIPASE / PHOSPHORUS / POTASSIUM / SODIUM / TOTAL BILIRUBIN / TOTAL PROTEIN / URIC ACID: tissue Plasma
[1] = 64 mg/kg, 120 h, dose level Low, time 5 day
[2] = 636 mg/kg, 72 h, dose level High, time 3 day
[3] = 636 mg/kg, 120 h, dose level High, time 5 day

SMILES: Nc1ccc(S(N)(=O)=O)cc1 [SULFANILAMIDE]
- ABSOLUTE BASOPHIL [1]: 0 CELLS/uL
- ABSOLUTE EOSINOPHIL [1]: 0 CELLS/uL
- ABSOLUTE LYMPHOCYTE [1]: 12536.33 CELLS/uL
- ABSOLUTE MONOCYTE [1]: 42.67 CELLS/uL
- BASOPHIL [1]: 0%
- EOSINOPHIL [1]: 0%
- ERYTHROCYTE COUNT [1]: 5.85 x10E6/uL
- HEMATOCRIT [1]: 36.4%
- HEMOGLOBIN [1]: 13.6 G/DL
- LEUKOCYTE COUNT [1]: 13.6 x10E3/uL
- LYMPHOCYTE [1]: 92.67%
- MEAN CORPUSCULAR HEMOGLOBIN [1]: 23.33 pg
- MEAN CORPUSCULAR HEMOGLOBIN CONCENTRATION [1]: 37.4 G/DL
- MEAN CORPUSCULAR VOLUME [1]: 62.37 fL
- MONOCYTE [1]: 0.33%
- NEUTROPHIL [1]: 7%
- NUCLEATED RED BLOOD CELLS [1]: 0.33 /100WBC
- PLATELET COUNT [1]: 1318 x10E3/uL
- ALANINE AMINOTRANSFERASE [1]: 52 u/L
- ALBUMIN [1]: 4.03 G/DL
- ASPARTATE AMINOTRANSFERASE [1]: 72 u/L
- BLOOD UREA NITROGEN [1]: 15.67 mg/dL
- CARBON DIOXIDE [1]: 26.33 mmol/L
- CHLORIDE [1]: 105.33 MEQ/L
- CHOLESTEROL [1]: 72.33 mg/dL
- CREATINE PHOSPHOKINASE [1]: 187 u/L
- CREATININE [1]: 0.27 mg/dL
- GLUCOSE [1]: 156.33 mg/dL
- LACTATE DEHYDROGENASE [1]: 102.33 u/L
- LIPASE [1]: 11 u/L
- PHOSPHORUS [1]: 12.07 mg/dL
- POTASSIUM [1]: 7.26 MEQ/L
- SODIUM [1]: 145.23 MEQ/L
- TOTAL BILIRUBIN [1]: 0.23 mg/dL
- TOTAL PROTEIN [1]: 5.9 G/DL
- URIC ACID [1]: 1.87 mg/dL
- ABSOLUTE BASOPHIL [2]: 0 CELLS/uL
- ABSOLUTE EOSINOPHIL [2]: 116 CELLS/uL
- ABSOLUTE LYMPHOCYTE [2]: 13223.33 CELLS/uL
- ABSOLUTE MONOCYTE [2]: 374 CELLS/uL
- BASOPHIL [2]: 0%
- EOSINOPHIL [2]: 0.67%
- ERYTHROCYTE COUNT [2]: 5.74 x10E6/uL
- HEMATOCRIT [2]: 35.33%
- HEMOGLOBIN [2]: 12.9 G/DL
- LEUKOCYTE COUNT [2]: 15.8 x10E3/uL
- LYMPHOCYTE [2]: 83.67%
- MEAN CORPUSCULAR HEMOGLOBIN [2]: 22.47 pg
- MEAN CORPUSCULAR HEMOGLOBIN CONCENTRATION [2]: 36.5 G/DL
- MEAN CORPUSCULAR VOLUME [2]: 61.53 fL
- MONOCYTE [2]: 2.33%
- NEUTROPHIL [2]: 13.33%
- NUCLEATED RED BLOOD CELLS [2]: 0 /100WBC
- PLATELET COUNT [2]: 1297.33 x10E3/uL
- ALANINE AMINOTRANSFERASE [2]: 71 u/L
- ALBUMIN [2]: 3.97 G/DL
- ASPARTATE AMINOTRANSFERASE [2]: 90.33 u/L
- BLOOD UREA NITROGEN [2]: 18.67 mg/dL
- CARBON DIOXIDE [2]: 25 mmol/L
- CHLORIDE [2]: 103 MEQ/L
- CHOLESTEROL [2]: 101.33 mg/dL
- CREATINE PHOSPHOKINASE [2]: 400.67 u/L
- CREATININE [2]: 0.16 mg/dL
- GLUCOSE [2]: 181.67 mg/dL
- LACTATE DEHYDROGENASE [2]: 100.67 u/L
- LIPASE [2]: 10 u/L
- PHOSPHORUS [2]: 12.37 mg/dL
- POTASSIUM [2]: 5.81 MEQ/L
- SODIUM [2]: 145.13 MEQ/L
- TOTAL BILIRUBIN [2]: 0.2 mg/dL
- TOTAL PROTEIN [2]: 5.67 G/DL
- URIC ACID [2]: 2.4 mg/dL
- ABSOLUTE BASOPHIL [3]: 0 CELLS/uL
- ABSOLUTE EOSINOPHIL [3]: 129.33 CELLS/uL
- ABSOLUTE LYMPHOCYTE [3]: 15741.33 CELLS/uL
- ABSOLUTE MONOCYTE [3]: 353 CELLS/uL
- BASOPHIL [3]: 0%
- EOSINOPHIL [3]: 0.67%
- ERYTHROCYTE COUNT [3]: 5.45 x10E6/uL
- HEMATOCRIT [3]: 34.17%
- HEMOGLOBIN [3]: 12.6 G/DL
- LEUKOCYTE COUNT [3]: 18.03 x10E3/uL
- LYMPHOCYTE [3]: 86.33%
- MEAN CORPUSCULAR HEMOGLOBIN [3]: 23.13 pg
- MEAN CORPUSCULAR HEMOGLOBIN CONCENTRATION [3]: 36.87 G/DL
- MEAN CORPUSCULAR VOLUME [3]: 62.7 fL
- MONOCYTE [3]: 2%
- NEUTROPHIL [3]: 11%
- NUCLEATED RED BLOOD CELLS [3]: 0 /100WBC
- PLATELET COUNT [3]: 1550 x10E3/uL
- ALANINE AMINOTRANSFERASE [3]: 66 u/L
- ALBUMIN [3]: 3.8 G/DL
- ASPARTATE AMINOTRANSFERASE [3]: 77 u/L
- BLOOD UREA NITROGEN [3]: 21.67 mg/dL
- CARBON DIOXIDE [3]: 26.67 mmol/L
- CHLORIDE [3]: 105.33 MEQ/L
- CHOLESTEROL [3]: 81.33 mg/dL
- CREATINE PHOSPHOKINASE [3]: 230.33 u/L
- CREATININE [3]: 0.16 mg/dL
- GLUCOSE [3]: 165.33 mg/dL
- LACTATE DEHYDROGENASE [3]: 107.33 u/L
- LIPASE [3]: 9 u/L
- PHOSPHORUS [3]: 12.53 mg/dL
- POTASSIUM [3]: 7.05 MEQ/L
- SODIUM [3]: 144.3 MEQ/L
- TOTAL BILIRUBIN [3]: 0.2 mg/dL
- TOTAL PROTEIN [3]: 5.63 G/DL
- URIC ACID [3]: 1.93 mg/dL
